# According to ChEMBL document CHEMBL5244223, “l,8-Naphthalimide based DNA intercalators and anticancer agents. A systematic review from 2007 to 2017” (Eur J Med Chem, 2018):
# pIC50: −log10 of the molar value.
# Legend:
# [1] = tested on: Pseudomonas aeruginosa; experiment: Antibacterial activity against Pseudomonas aeruginosa assessed as inhibition of bacterial growth incubated for 24 hrs by two-fold serial dilution assay; assay type: functional
# [2] = tested on: Escherichia coli; experiment: Antibacterial activity against Escherichia coli JM109 assessed as inhibition of bacterial growth incubated for 24 hrs by two-fold serial dilution assay; assay type: functional
# [3] = tested on: Staphylococcus aureus; experiment: Antibacterial activity against methicillin-resistant Staphylococcus aureus N315 assessed as inhibition of bacterial growth incubated for 24 hrs by two-fold serial dilution assay; assay type: functional
# [4] = tested on: Staphylococcus aureus; experiment: Antibacterial activity against Staphylococcus aureus ATCC25923 assessed as inhibition of bacterial growth incubated for 24 hrs by two-fold serial dilution assay; assay type: functional
# [5] = tested on: Micrococcus luteus; experiment: Antibacterial activity against Micrococcus luteus assessed as inhibition of bacterial growth incubated for 24 hrs by two-fold serial dilution assay; assay type: functional
# [6] = tested on: Proteus; experiment: Antibacterial activity against Proteus ATCC13315 assessed as inhibition of bacterial growth incubated for 24 hrs by two-fold serial dilution assay; assay type: functional
# [7] = tested on: Bacillus subtilis; experiment: Antibacterial activity against Bacillus subtilis ATCC6633 assessed as inhibition of bacterial growth incubated for 24 hrs by two-fold serial dilution assay; assay type: functional
# [8] = tested on: Salmonella typhi; experiment: Antibacterial activity against Salmonella enterica subsp. enterica serovar Typhi assessed as inhibition of bacterial growth incubated for 24 hrs by two-fold serial dilution assay; assay type: functional
# [9] = tested on: Jurkat; experiment: Antiproliferative activity against human Jurkat cells assessed as inhibition of cell proliferation incubated for 72 hrs by MTT assay; assay type: functional, cell-based
# [10] = tested on: Clupea harengus; experiment: Binding affinity to Atlantic herring DNA assessed as binding constant by fluorescence based EtBr-UV absorption spectral analysis
# [11] = tested on: HepG2; experiment: Cytotoxicity against human HepG2 cells assessed as inhibition of cell growth incubated for 48 hrs by MTT assay; assay type: functional, cell-based; conditions: HepG2, 48 h
# [12] = tested on: SMMC-7721; experiment: Cytotoxicity against human SMMC-7721 cells assessed as inhibition of cell growth incubated for 48 hrs by MTT assay; assay type: functional, cell-based; conditions: SMMC-7721, 48 h
# [13] = tested on: HCT-116; experiment: Cytotoxicity against human HCT-116 cells assessed as inhibition of cell growth incubated for 48 hrs by MTT assay; assay type: functional, cell-based; conditions: HCT-116, 48 h
# [14] = tested on: K562; experiment: Cytotoxicity against human K562 cells assessed as inhibition of cell growth incubated for 48 hrs by MTT assay; assay type: functional, cell-based; conditions: K562, 48 h
# [15] = tested on: HCT-15; experiment: Cytotoxicity against human HCT-15 cells assessed as inhibition of cell growth incubated for 24 hrs by sulforhodamine B assay; assay type: functional, cell-based; conditions: HCT-15, 24 h
# [16] = tested on: HCT-116; experiment: Cytotoxicity against human HCT-116 cells assessed as inhibition of cell growth incubated for 72 hrs by MTT assay; assay type: functional, cell-based; conditions: HCT-116, 72 h
# [17] = tested on: HeLa; experiment: Antiproliferative activity against human HeLa cells assessed as inhibition of cell proliferation incubated for 48 hrs by MTT assay; assay type: functional, cell-based
# [18] = tested on: SMMC-7721; experiment: Antiproliferative activity against human SMMC-7721 cells assessed as inhibition of cell proliferation incubated for 48 hrs by MTT assay; assay type: functional, cell-based; conditions: SMMC-7721, 48 h
# [19] = tested on: MCF7; experiment: Antiproliferative activity against human MCF7 cells assessed as inhibition of cell proliferation incubated for 48 hrs by MTT assay; assay type: functional, cell-based; conditions: MCF7, 48 h
# [20] = target: Salmon testes DNA; experiment: Binding affinity to salmon Testis DNA assessed as equilibrium binding constant by steady-state fluorescence spectroscopic analysis; conditions: Salmo salar
# [21] = tested on: MCF7; experiment: Antiproliferative activity against human MCF7 cells assessed as inhibition of cell proliferation incubated for 24 hrs by MTT assay; assay type: functional, cell-based; conditions: MCF7, 24 h
# [22] = tested on: L02; experiment: Antiproliferative activity against human HL7702 cells assessed as inhibition of cell proliferation incubated for 24 hrs by MTT assay; assay type: functional, cell-based; conditions: L02, 24 h
# [23] = tested on: BGC-823; experiment: Antiproliferative activity against human BGC-823 cells assessed as inhibition of cell proliferation incubated for 24 hrs by MTT assay; assay type: functional, cell-based; conditions: BGC-823, 24 h
smiles,measurement,setting,value
O=C1c2cccc3c(Sc4nc5ccccc5n4Cc4cccc(Cl)c4)ccc(c23)C(=O)N1CCCCn1cncn1,MIC,[1],> 512 µg/mL
same,MIC,[2],> 512 µg/mL
same,MIC,[3],> 512 µg/mL
same,MIC,[4],> 512 µg/mL
same,MIC,[5],> 512 µg/mL
same,MIC,[6],> 512 µg/mL
same,MIC,[7],> 512 µg/mL
same,MIC,[8],> 512 µg/mL
O=C1c2cccc3cccc(c23)C(=O)N1CCCC/N=C/c1ccccn1,pIC50,[9],5.25
CN(C)CCNCCCN1C(=O)c2cccc3cccc(c23)C1=O,Kb,[10],1.15 10^4/M
CCCCOC(=O)c1ccc2c3c(cccc13)C(=O)N(CCN(C)C)C2=O,pIC50,[11],< 4.30
same,pIC50,[12],< 4.30
same,pIC50,[13],< 4.30
same,pIC50,[14],< 4.30
O=C1c2cccc3cccc(c23)C(=O)N1CCCCn1cc(-c2ccccc2)nn1,pIC50,[15],5.61
O=C1c2cccc3cccc(c23)C(=O)N1CCCNCCN(CCO)CCO,pIC50,[16],< 4.40
O=C1c2cccc3cccc(c23)C(=O)N1CCCn1cc(-c2ccccc2)nn1,pIC50,[15],5.61
CN(C)CCN1C(=O)c2cccc3cc(-n4cc(-c5ccccc5)nn4)cc(c23)C1=O,pIC50,[17],6.52
same,pIC50,[18],6.52
same,pIC50,[19],6.52
O=C1c2cccc3cc(-n4ccnn4)cc(c23)C(=O)N1CCO,pIC50,[17],6.52
same,pIC50,[18],6.52
same,pIC50,[19],6.52
CCCCN1C(=O)c2cccc3cc(-n4cc(-c5ccccc5)nn4)cc(c23)C1=O,pIC50,[17],6.52
same,pIC50,[18],6.52
same,pIC50,[19],6.52
Nc1ccc2c3c(cccc13)C(=O)N(CC[n+]1ccccc1)C2=O,Kb,[20],1.38 10^5/M
CCCOC(=O)c1ccc2c3c(cccc13)C(=O)N(CCN(C)C)C2=O,pIC50,[11],< 4.30
same,pIC50,[12],< 4.30
same,pIC50,[13],< 4.30
same,pIC50,[14],< 4.30
O=C1c2cccc3cc(-n4cc(-c5ccccc5)nn4)cc(c23)C(=O)N1CCO,pIC50,[17],6.52
same,pIC50,[18],6.52
same,pIC50,[19],6.52
CCCCCCCCNN1C(=O)c2cccc3c2c(cc2[nH]c(-c4c[nH]c5ccccc45)nc23)C1=O,pIC50,[21],6.15
same,pIC50,[22],6.15
same,pIC50,[23],6.15
O=C1c2cccc3c(Sc4nc5ccccc5n4Cc4cccc(F)c4)ccc(c23)C(=O)N1CCCCn1cncn1,MIC,[1],> 512 µg/mL
same,MIC,[2],> 512 µg/mL
same,MIC,[3],> 512 µg/mL
same,MIC,[4],> 512 µg/mL
same,MIC,[5],> 512 µg/mL
same,MIC,[6],> 512 µg/mL
same,MIC,[7],> 512 µg/mL
same,MIC,[8],> 512 µg/mL
O=C1c2cccc3cccc(c23)C(=O)N1CCCNCc1ccco1,pIC50,[15],5.61
O=C1c2cccc3cccc(c23)C(=O)N1CCn1cc(-c2ccccc2)nn1,pIC50,[15],5.61
CCN(CC)CCN1C(=O)c2cccc3c2c(cc2[nH]c(-c4c[nH]c5ccccc45)nc23)C1=O,pIC50,[21],5.09
same,pIC50,[22],5.09
same,pIC50,[23],5.09
CCNN1C(=O)c2cccc3c2c(cc2[nH]c(-c4c[nH]c5ccccc45)nc23)C1=O,pIC50,[21],6.15
same,pIC50,[22],6.15
same,pIC50,[23],6.15
O=C1c2cccc3cccc(c23)C(=O)N1CCNCc1ccccn1,pIC50,[9],5.25
O=C1c2cccc3cccc(c23)C(=O)N1CCCNCCCN(CCCl)CCCl,pIC50,[16],5.85
CCCCN1C(=O)c2cccc3cc(-n4ccnn4)cc(c23)C1=O,pIC50,[17],6.52
same,pIC50,[18],6.52
same,pIC50,[19],6.52
O=C1c2cccc3cccc(c23)C(=O)N1CCCNCCCN(CCO)CCO,pIC50,[16],5.16
CN(C)c1ccc2c3c(cccc13)C(=O)N(CCc1cc[n+](C)cc1)C2=O,Kb,[20],1.38 10^5/M
O=C1c2cccc3c2c(cc2[nH]c(-c4c[nH]c5ccccc45)nc23)C(=O)N1CCCO,pIC50,[21],6.15
same,pIC50,[22],6.15
same,pIC50,[23],6.15
O=C1c2cccc3cccc(c23)C(=O)N1CC[n+]1ccccc1,Kb,[20],2 10^4/M
O=C1c2cccc3c(Sc4nc5ccccc5n4Cc4ccc(F)cc4)ccc(c23)C(=O)N1CCCCn1cncn1,MIC,[1],> 512 µg/mL
same,MIC,[2],> 512 µg/mL
same,MIC,[3],> 512 µg/mL
same,MIC,[4],> 512 µg/mL
same,MIC,[5],> 512 µg/mL
same,MIC,[6],> 512 µg/mL
same,MIC,[7],> 512 µg/mL
same,MIC,[8],> 512 µg/mL
NCCNCCCN1C(=O)c2cccc3cccc(c23)C1=O,Kb,[10],1.15 10^4/M
O=C1c2cccc3c(Sc4nc5ccccc5n4Cc4ccccc4Cl)ccc(c23)C(=O)N1CCCCn1cncn1,MIC,[1],> 512 µg/mL
same,MIC,[2],> 512 µg/mL
same,MIC,[3],> 512 µg/mL
same,MIC,[4],> 512 µg/mL
same,MIC,[5],> 512 µg/mL
same,MIC,[6],> 512 µg/mL
same,MIC,[7],> 512 µg/mL
same,MIC,[8],> 512 µg/mL
